Laboratory results: patent US9452980B2, “Substituted benzamides” (Hoffmann-La Roche Inc., priority 2009, dated 2016)
Where a name gives a salt, the structure may show the parent alone. Read-outs that look alike come from different tables or passages of the source.

What was measured:
mouse TAAR1 = mouse TAAR1 (Mus musculus (Mouse), UniProt Q923Y8); experiment: Radioligand binding assay on mouse TAAR1; conditions: read-out: Ki (μM) mouse
Method in brief: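 Displacement of the tritiated oxazol-2-ylamine radioligand was measured by filtration and scintillation counting after 1 h incubation at 4 °C. Test concentrations ran 10 pM–10 μM in duplicate, with 10 μM cold ligand giving nonspecific binding. The receptor source was membranes of a stable mouse TAAR1 HEK293 line.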

rat TAAR1 = rat TAAR1 (Rattus norvegicus (Rat), UniProt Q923Y9); experiment: Radioligand binding assay on rat TAAR1; conditions: read-out: Ki (μM) rat
Sequence of rat TAAR1 (Q923Y9 whole entry): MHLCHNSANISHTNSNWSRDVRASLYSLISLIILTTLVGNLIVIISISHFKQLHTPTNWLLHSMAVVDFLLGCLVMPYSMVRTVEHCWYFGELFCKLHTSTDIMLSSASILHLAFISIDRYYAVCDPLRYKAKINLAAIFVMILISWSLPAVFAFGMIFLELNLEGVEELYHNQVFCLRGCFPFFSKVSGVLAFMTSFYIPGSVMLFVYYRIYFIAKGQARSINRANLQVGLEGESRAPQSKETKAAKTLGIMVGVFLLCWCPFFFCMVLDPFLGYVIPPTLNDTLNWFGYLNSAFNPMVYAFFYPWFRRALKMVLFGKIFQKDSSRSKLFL
Method in brief: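 Membranes from HEK293 cells stably expressing rat TAAR1, with Kd checked per batch by saturation. Competition with ³H-(S)-4-[(ethyl-phenyl-amino)-methyl]-4,5-dihydro-oxazol-2-ylamine, compounds 10 pM–10 μM in duplicate, 1 hr at 4 °C. Filtration then scintillation counting; nonspecific binding defined with 10 μM unlabeled ligand.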

[1] = mouse TAAR1, HEK-293 membranes, first value of cell mouse/rat
[2] = rat TAAR1, HEK-293 membranes, second value of cell mouse/rat

Sequence of mouse TAAR1 (Q923Y8 whole entry): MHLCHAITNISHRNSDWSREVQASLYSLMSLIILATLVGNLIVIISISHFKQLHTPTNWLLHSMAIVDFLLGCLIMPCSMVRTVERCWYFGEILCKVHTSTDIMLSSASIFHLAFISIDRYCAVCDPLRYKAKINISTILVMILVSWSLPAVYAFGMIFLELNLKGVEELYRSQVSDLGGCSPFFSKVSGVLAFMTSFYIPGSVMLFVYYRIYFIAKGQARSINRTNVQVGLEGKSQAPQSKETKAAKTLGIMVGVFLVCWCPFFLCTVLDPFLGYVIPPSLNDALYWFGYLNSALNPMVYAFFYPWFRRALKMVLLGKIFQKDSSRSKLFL

SMILES | Ki (mouse TAAR1; [1]) [µM] | Ki (rat TAAR1; [2]) [µM] | also measured
O=C(Nc1ccc([C@H]2CCCNC2)cc1)c1cccc(C(F)(F)F)c1 [Example 261, (R)—N-(4-(Piperidin-3-yl)phenyl)-3-(trifluoromethyl)benzamide hydrochloride] | 0.0027 |  | Ki (rat TAAR1): 0.0015 µM
O=C(Nc1ccc(C2CCNC2)cc1)c1ccc(C(F)(F)F)cc1 (racemic) [Example 18, (RS)—N-(4-Pyrrolidin-3-yl-phenyl)-4-trifluoromethyl-benzamide hydrochloride] | 0.0011 | 0.0036 | 
O=C(Nc1ccc(CCC2CCCNC2)cc1)c1ccc(Cl)cn1 (racemic) [Example 118, (RS)-5-Chloro-pyridine-2-carboxylic acid [4-(2-piperidin-3-yl-ethyl)-phenyl]-amide hydrochloride] | 0.13 | 0.0081 | 
Cc1cc(C(=O)Nc2ccc([C@@H]3CCCNC3)cc2)cc(Cl)n1 [Example 282, (S)-2-Chloro-6-methyl-N-(4-(piperidin-3-yl)phenyl)isonicotinamide] |  | 0.0048 | Ki (mouse TAAR1): 0.243 µM
O=C(Nc1ccc(C2CCCNC2)cc1)Nc1ccc(Cl)nc1 (racemic) [Example 79, (RS)-1-(6-Chloro-pyridin-3-yl)-3-(4-piperidin-3-yl-phenyl)-urea hydrochloride] | 0.0075 | 0.0924 | 
CSc1ccc(C(=O)Nc2ccc([C@@H]3CCCNC3)cc2)cn1 [Example 244, (S)-6-(Methylthio)-N-(4-(piperidin-3-yl)phenyl)nicotinamide hydrochloride] |  | 0.0049 | Ki (mouse TAAR1): 0.268 µM
O=C(Nc1ccc(C2CCCNC2)cc1)c1cnc(Cl)cn1 (racemic) [Example 160, (RS)-5-Chloro-pyrazine-2-carboxylic acid (4-piperidin-3-yl-phenyl)-amide hydrochloride] | 0.0851 | 0.0046 | 
O=C(Nc1ccc([C@H]2CCCNC2)cc1)c1ccc(C(F)(F)F)nc1 [Example 265, (R)—N-(4-(Piperidin-3-yl)phenyl)-6-(trifluoromethyl)nicotinamide hydrochloride] |  |  | Ki (mouse TAAR1): 0.0209 µM; Ki (rat TAAR1): 0.0059 µM
Cc1ccc(C(=O)Nc2ccc([C@H]3CCCNC3)cc2)cc1C [Example 260, (R)-3,4-Dimethyl-N-(4-(piperidin-3-yl)phenyl)benzamide hydrochloride] |  | 0.0012 | Ki (mouse TAAR1): 0.016 µM
COc1ccc(C(=O)Nc2ccc(C3CCNC3)cc2)nc1 (racemic) [Example 94, (RS)-5-Methoxy-pyridine-2-carboxylic acid (4-pyrrolidin-3-yl-phenyl)-amide hydrochloride] |  | 0.379 | Ki (mouse TAAR1): 0.0601 µM
CSc1ccc(C(=O)Nc2ccc(C3CNCCO3)cc2)cc1 (stereo in doubt) [Example 267, (S)-4-(Methylthio)-N-(4-(morpholin-2-yl)phenyl)benzamide hydrochloride] | 0.0476 |  | Ki (rat TAAR1): 0.0011 µM
O=C(Nc1ccc(C2CCCNC2)cc1)c1ccc(Cl)cc1 (racemic) [Example 58, (RS)-4-Chloro-N-(4-piperidin-3-yl-phenyl)-benzamide hydrochloride] | 0.0007 | 0.0022 | 
O=C(Nc1ccc([C@@H]2CNCCO2)cc1)c1ccc(OCC(F)(F)F)nc1 [Example 268, (R)—N-(4-(Morpholin-2-yl)phenyl)-6-(2,2,2-trifluoroethoxy)nicotinamide hydrochloride] |  |  | Ki (mouse TAAR1): 0.002 µM; Ki (rat TAAR1): 0.0024 µM
CSc1ccc(C(=O)Nc2ccc([C@@H]3CNCCO3)cc2)cc1 [Example 266, (R)-4-(Methylthio)-N-(4-(morpholin-2-yl)phenyl)benzamide hydrochloride] |  |  | Ki (mouse TAAR1; mouse TAAR1, HEK-293 membranes, first value of cell mouse/rat, hydrochloride): 0.0163 µM; Ki (rat TAAR1; hydrochloride): 0.0012 µM
O=C(Nc1ccc(C2CCNC2)cc1)Nc1cccc(Cl)c1 (racemic) [Example 8, (RS)-1-(3-Chloro-phenyl)-3-(4-pyrrolidin-3-yl-phenyl)-urea hydrochloride] | 0.0015 | 0.0044 | 
O=C(Nc1ccc(CCC2CCCCN2)cc1)c1ccc(Cl)c(Cl)c1 (racemic) [Example 176, (RS)-3,4-Dichloro-N-(4-(2-(piperidin-2-yl)ethyl)phenyl)benzamide hydrochloride] | 0.0253 | 0.001 | 
Cc1ccc(C(=O)Nc2ccc([C@@H]3CCCNC3)cc2)cc1C [Example 227, (S)-3,4-Dimethyl-N-(4-(piperidin-3-yl)phenyl)benzamide hydrochloride] |  | 0.0012 | Ki (mouse TAAR1): 0.177 µM
Cc1cc(C(=O)Nc2ccc([C@@H]3CCCNC3)cc2)ccc1Cl [Example 226, (S)-4-Chloro-3-methyl-N-(4-(piperidin-3-yl)phenyl)benzamide hydrochloride] |  |  | Ki (mouse TAAR1): 0.0555 µM; Ki (rat TAAR1): 0.001 µM
CC(C(=O)Nc1ccc(C2CCNC2)cc1)c1cccc(C#N)c1 (racemic) [Example 68, (RS)-2-(3-Cyano-phenyl)-N—((RS)-4-pyrrolidin-3-yl-phenyl)-propionamide] | 0.147 | 0.102 | 
O=C(Nc1ccc(C2CCNC2)cc1)c1ccc(Cl)cc1 (racemic) [Example 16, (RS)-4-Chloro-N-(4-pyrrolidin-3-yl-phenyl)-benzamide hydrochloride] | 0.0007 | 0.0043 | 
O=C(Nc1ccc(CC2CCCN2)cc1)c1ccc(Cl)cc1 (racemic) [Example 107, (RS)-4-Chloro-N-(4-pyrrolidin-2-ylmethyl-phenyl)-benzamide hydrochloride] | 0.0027 | 0.0445 | 

Continued, in another order:

Ki (mouse TAAR1; [1]) [µM] | Ki (rat TAAR1; [2]) [µM] | SMILES | also measured
0.113 | 0.0022 | COc1cc(C(=O)Nc2ccc([C@@H]3CCCNC3)cc2)ccc1Cl [Example 201, (S)-4-Chloro-3-methoxy-N-(4-(piperidin-3-yl)phenyl)benzamide hydrochloride] | 
1.27 | 0.0134 | O=C(Nc1ccc(CCC2CCCNC2)cc1)c1ncc(F)cc1F (racemic) [Example 135, (RS)-3,5-Difluoro-pyridine-2-carboxylic acid [4-(2-piperidin-3-yl-ethyl)-phenyl]-amide hydrochloride] | 
6.38 | 0.63 | O=C(Nc1ccc(C2CCCCN2)cc1)c1ccc(Cl)cc1 (racemic) [Example 159, (RS)-4-Chloro-N-(4-piperidin-2-yl-phenyl)-benzamide hydrochloride] | 
0.0326 | 0.0014 | CCOc1ccc(C(=O)Nc2ccc(CCC3CCCN3)cc2)cc1 (racemic) [Example 158, (RS)-4-Ethoxy-N-[4-(2-pyrrolidin-2-yl-ethyl)-phenyl]-benzamide hydrochloride] | 
12900 | 0.0312 | O=C(NCc1ccc([C@H]2CNCCO2)cc1)c1cccc(Cl)c1 [Example 318, (S)-3-Chloro-N-(4-(morpholin-2-yl)benzyl)benzamide hydrochloride] | 
0.0645 | 0.0847 | Cn1cc(-c2nc(C(=O)Nc3ccc(C4CNCCO4)cc3)cs2)cn1 (racemic) [Example 296, (RS)-2-(1-Methyl-1H-pyrazol-4-yl)-N-(4-(morpholin-2-yl)phenyl)thiazole-4-carboxamide hydrochloride] | 
0.0836 | 0.0074 | O=C(Nc1ccc(CCC2CCNC2)cc1)Nc1ccc(Cl)cn1 (racemic) [Example 114, (RS)-1-(5-Chloro-pyridin-2-yl)-3-[4-(2-pyrrolidin-3-yl-ethyl)-phenyl]-urea hydrochloride] | 
0.0025 | 0.0024 | O=C(Nc1ccc(C2CNCCO2)cc1)c1coc(-c2ccccc2)n1 (racemic) [Example 249, (RS)—N-(4-(Morpholin-2-yl)phenyl)-2-phenyloxazole-4-carboxamide hydrochloride] | 
0.0051 | 0.017 | O=C(Nc1ccc(C2CCNC2)cc1)c1ccc(Br)cn1 (racemic) [Example 87, (RS)-5-Bromo-pyridine-2-carboxylic acid (4-pyrrolidin-3-yl-phenyl)-amide hydrochloride] | 
0.0778 | 0.0305 | O=C(Nc1ccc(C2CNCCO2)cc1)NC1CCCCC1 (racemic) [Example 307, (RS)-1-cyclohexyl-3-(4-(morpholin-2-yl)phenyl)urea hydrochloride] | 
0.0008 | 0.0014 | O=C(Nc1ccc(C2CNCCO2)cc1)c1csc(-c2ccccc2)n1 (racemic) [Example 233, (RS)—N-(4-(Morpholin-2-yl)phenyl)-2-phenylthiazole-4-carboxamide hydrochloride] | 
0.136 | 0.296 | O=C(Nc1ccc(C2CCNC2)cc1)c1nc2ccccc2[nH]1 (racemic) [Example 76, (RS)-1H-Benzoimidazole-2-carboxylic acid (4-pyrrolidin-3-yl-phenyl)-amide hydrochloride] | 
0.0107 | 0.0009 | O=C(Nc1ccc(CCC2CCCN2)cc1)c1ccc(C(F)(F)F)cc1 (racemic) [Example 155, (RS)—N-[4-(2-Pyrrolidin-2-yl-ethyl)-phenyl]-4-trifluoromethyl-benzamide hydrochloride] | 
0.437 | 0.0159 | O=C(Nc1ccc(CCC2CCCCN2)cc1)c1cnc(Cl)cn1 (racemic) [Example 174, (RS)-5-Chloro-N-(4-(2-(piperidin-2-yl)ethyl)phenyl)pyrazine-2-carboxamide hydrochloride] | 
0.113 | 0.0077 | CCOc1ccc(C(=O)Nc2ccc(CCC3CCCN3)cc2)nc1 (racemic) [Example 172, (RS)-5-Ethoxy-N-(4-(2-(pyrrolidin-2-yl)ethyl)phenyl)picolinamide hydrochloride] | 
